Results published in patent US20250074901A1, “NOVEL HETEROARYL COMPOUNDS” (ICAGEN, LLC, priority 2021, published 2025).

Biological target: T1, Kv7.2 (Homo sapiens, UniProt O43526)
T1 construct: expressed in transfected cells
Assay: Activation of Kv7.2 (in vitro assay, concentration response curve)
Assay type: cell-based
Conditions: for Emax: Kv7.2 activation max %; for EC50: activation of Kv7.2
How it was run: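 EC50 is the half-maximal effective concentration, relative to the Emax observed for each compound in this in vitro assay. It was derived from concentration–response curves of the agonistic effect measured over a series of concentrations.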

Emax [%]	EC50 [nM]	Structure (SMILES)
75	30	CC1CCCC(C)C1NC(=O)NCc1ccnc(OC(F)F)c1 (centres unmarked) [Example 25, 1-[[2-(difluoromethoxy)pyridin-4-yl]methyl]-3-(2,6-dimethylcyclohexyl)urea]
66	3330	O=C(NCc1ccnc(OC(F)F)c1)NC1COC(C2CC2)C1 (centres unmarked) [Example 166, 1-(5-cyclopropyloxolan-3-yl)-3-[[2-(difluoromethoxy)pyridin-4-yl]methyl]urea]
44	6510	CC1(C)C[C@H](NC(=O)NCc2ccnc(-n3cnc(C(F)(F)F)c3)c2)[C@@H]1O (racemic) [Example 99, 1-[rac-(1R,2S)-2-hydroxy-3,3-dimethylcyclobutyl]-3-[[2-[4-(trifluoromethyl)imidazol-1-yl]pyridin-4-yl]methyl]urea]
68	70	O=C(NCc1ccnc(OC(F)F)c1)N[C@H](C1CCC1)C(F)(F)F [Example 241, 1-[(1R)-1-cyclobutyl-2,2,2-trifluoroethyl]-3-[[2-(difluoromethoxy)pyridin-4-yl]methyl]urea]
54	50	O=C(NCc1ccnc(OCC(F)(F)F)c1)Nc1cc(F)ccc1F [Example 245, 1-(2,5-difluorophenyl)-3-[[2-(2,2,2-trifluoroethoxy)pyridin-4-yl]methyl]urea]
58	170	O=C(NCc1ccnc(OC(F)F)c1)NC1CC2C(C1)C2(F)F (racemic) [Example 74, 1-[[2-(difluoromethoxy)pyridin-4-yl]methyl]-3-[rac-(1R,5S)-6,6-difluoro-3-bicyclo[3.1.0]hexanyl]urea]
87	460	O=C(NCc1ccnc(OC(F)F)c1)N[C@@H]1C[C@H]2C[C@@H]1C(F)(F)C2 (racemic) [Example 236, 1-[[2-(difluoromethoxy)pyridin-4-yl]methyl]-3-[rac-(1R,2S,4S)-6,6-difluoro-2-bicyclo[2.2.1]heptanyl]urea]
62	90	O=C(NCc1ccnc(OC(F)F)c1)NC1CC(C2CC2)C1 (centres unmarked) [Example 77, 1-(3-cyclopropylcyclobutyl)-3-[[2-(difluoromethoxy)pyridin-4-yl]methyl]urea]
61	190	CC(F)(F)COc1cc(CNC(=O)NC23CCC(F)(CC2)CC3)ccn1 [Example 122, 1-[[2-(2,2-difluoropropoxy)pyridin-4-yl]methyl]-3-(4-fluoro-1-bicyclo[2.2.2]octanyl)urea]
71	270	CC1(C)CCC(NC(=O)NCc2ccnc(OC3COC3)c2)CC1 [Example 18, 1-(4,4-dimethylcyclohexyl)-3-[[2-(oxetan-3-yloxy)pyridin-4-yl]methyl]urea]
59	200	COCC(Oc1cc(CNC(=O)N[C@H]2C[C@H](C(F)(F)F)C2)ccn1)C(F)(F)F (some centres unmarked) [Example 281, 1-[[2-(1,1,1-trifluoro-3-methoxypropan-2-yl)oxypyridin-4-yl]methyl]-3-[3-(trifluoromethyl)cyclobutyl]urea]
40	1540	C[C@]1(NC(=O)NCc2ccnc(OC(F)F)c2)C[C@@H](C(F)(F)F)C1 [Example 194, 1-[[2-(difluoromethoxy)pyridin-4-yl]methyl]-3-[(1r,3r)-1-methyl-3-(trifluoromethyl)cyclobutyl]urea]
43	750	O=C(NCc1ccnc(OC(F)F)c1)NCC1CC(C(F)(F)F)C1 (centres unmarked) [Example 62, 1-[[2-(difluoromethoxy)pyridin-4-yl]methyl]-3-[[3-(trifluoromethyl)cyclobutyl]methyl]urea]
68	130	Cc1cccc(NC(=O)NC(CO)c2ccnc(OCC(F)(F)F)c2)c1 (centres unmarked) [Example 233, 1-[2-hydroxy-1-[2-(2,2,2-trifluoroethoxy)pyridin-4-yl]ethyl]-3-(3-methylphenyl)urea]
62	620	O=C(NCc1ccnc(OCC(F)(F)F)c1)NCC(O)C12CC(C1)C2 (centres unmarked) [Example 292, 1-[2-(1-bicyclo[1.1.1]pentanyl)-2-hydroxyethyl]-3-[[2-(2,2,2-trifluoroethoxy)pyridin-4-yl]methyl]urea]
40	850	O=C(NCc1ccnc(OC(F)F)c1)NC[C@H]1C[C@@H](C(F)(F)F)C1 [Example 87, 1-[[2-(difluoromethoxy)pyridin-4-yl]methyl]-3-[[3-(1r,3r)-(trifluoromethyl)cyclobutyl]methyl]urea]
54	160	O=C(NCc1ccnc(OC(F)F)c1)NC12CCC(F)(CC1)CC2 [Example 48, 1-[[2-(difluoromethoxy)pyridin-4-yl]methyl]-3-(4-fluoro-1-bicyclo[2.2.2]octanyl)urea]
39	1880	CC(CNC(=O)NCc1ccnc(OC(F)F)c1)OC(F)F (centres unmarked) [Example 268, 1-[2-(difluoromethoxy)propyl]-3-[[2-(difluoromethoxy)pyridin-4-yl]methyl]urea]
67	250	Cc1cccc(NC(=O)NC(CO)c2ccnc(OC(F)F)c2)c1 (centres unmarked) [Example 280, 1-[1-[2-(difluoromethoxy)pyridin-4-yl]-2-hydroxyethyl]-3-(3-methylphenyl)urea]

Emax [%]	EC50 [nM]	Structure (SMILES)
58	1140	O=C(NCc1ccnc(-n2cccn2)c1)NC12CC(C(F)(F)F)(C1)C2 [Example 6, 1-[(2-pyrazol-1-ylpyridin-4-yl)methyl]-3-[3-(trifluoromethyl)-1-bicyclo[1.1.1]pentanyl]urea]
42	210	O=C(NCc1ccnc(OC(F)F)c1)Nc1cccc(Cl)n1 [Example 84, 1-(6-chloropyridin-2-yl)-3-[[2-(difluoromethoxy)pyridin-4-yl]methyl]urea]
64	240	Cc1cc(NC(=O)NC(CO)c2ccnc(OCC(F)(F)F)c2)ccc1F (centres unmarked) [Example 205, 1-(4-fluoro-3-methylphenyl)-3-[2-hydroxy-1-[2-(2,2,2-trifluoroethoxy)pyridin-4-yl]ethyl]urea]
81	890	O=C(NCc1ccnc(OCC(F)(F)F)c1)NCC(O)C12CC(F)(C1)C2 (centres unmarked) [Example 290, 1-[2-(3-fluoro-1-bicyclo[1.1.1]pentanyl)-2-hydroxyethyl]-3-[[2-(2,2,2-trifluoroethoxy)pyridin-4-yl]methyl]urea]
53	700	CC1CC(C)(C)CCC1NC(=O)NCc1ccnc(-n2ccnc2)c1 (centres unmarked) [Example 9, 1-[(2-imidazol-1-ylpyridin-4-yl)methyl]-3-(2,4,4-trimethylcyclohexyl)urea]
66	2550	O=C(NCc1ccnc(OC(F)F)c1)NC12CCC(C(F)(F)F)(CC1)CC2 [Example 68, 1-[[2-(difluoromethoxy)pyridin-4-yl]methyl]-3-[4-(trifluoromethyl)-1-bicyclo[2.2.2]octanyl]urea]
57	440	O=C(NCc1ccnc(OC(F)F)c1)N[C@H]1CC[C@H](F)C1 [Example 239, 1-[[2-(difluoromethoxy)pyridin-4-yl]methyl]-3-[(1S,3S)-3-fluorocyclopentyl]urea]
52	130	O=C(NCc1ccnc(OC(F)F)c1)N[C@@H]1CCOc2ccccc21 [Example 23, 1-[[2-(difluoromethoxy)pyridin-4-yl]methyl]-3-[(4R)-3,4-dihydro-2H-chromen-4-yl]urea]
50	190	O=C(NCc1ccnc(OCC(F)(F)F)c1)N[C@H]1C[C@H](F)C1 [Example 162, 1-((1r,3r)-3-fluorocyclobutyl)-3-[[2-(2,2,2-trifluoroethoxy)pyridin-4-yl]methyl]urea]
75	140	O=C(NCc1ccnc(OCC(F)(F)F)c1)NC1CCCC1 [Example 43, 1-cyclopentyl-3-[[2-(2,2,2-trifluoroethoxy)pyridin-4-yl]methyl]urea]
61	240	O=C(NCc1ccnc(OCC(F)(F)F)c1)N[C@H](C1CC1)C(F)(F)F [Example 257, 1-[(1R)-1-cyclopropyl-2,2,2-trifluoroethyl]-3-[[2-(2,2,2-trifluoroethoxy)pyridin-4-yl]methyl]urea]
53	500	O=C(NCc1ccnc(OC(F)F)c1)NC1COC(C(F)(F)F)C1 (centres unmarked) [Example 258, 1-[[2-(difluoromethoxy)pyridin-4-yl]methyl]-3-[5-(trifluoromethyl)oxolan-3-yl]urea]
55	1810	C[C@]1(O)CCC[C@@H]1NC(=O)NCc1ccnc(OC(F)F)c1 [Example 184, 1-[[2-(difluoromethoxy)pyridin-4-yl]methyl]-3-[(1S,2S)-2-hydroxy-2-methylcyclopentyl]urea]
59	80	O=C(NCc1ccnc(OC(F)F)c1)N[C@@H]1[C@H]2CCC(F)(F)[C@H]21 [Example 170, 1-[(1R,5S,6R)-2,2-difluoro-6-bicyclo[3.1.0]hexanyl]-3-[[2-(difluoromethoxy)pyridin-4-yl]methyl]urea]
55	1950	CC(C)(F)CNC(=O)NCc1ccnc(OC(F)F)c1 [Example 39, 1-[[2-(difluoromethoxy)pyridin-4-yl]methyl]-3-(2-fluoro-2-methylpropyl)urea]
41	1600	COC(CNC(=O)NCc1ccnc(OC(F)F)c1)C(F)(F)F (centres unmarked) [Example 119, 1-[[2-(difluoromethoxy)pyridin-4-yl]methyl]-3-(3,3,3-trifluoro-2-methoxypropyl)urea]
76	8280	O=C(NCc1ccnc(-c2cnco2)c1)N[C@H]1C[C@@H]2CC[C@H]1C2 (racemic) [Example 28, 1-[[2-(1,3-oxazol-5-yl)pyridin-4-yl]methyl]-3-[rac-(1R,2R,4S)-2-bicyclo[2.2.1]heptanyl]urea]
61	170	O=C(NCc1ccnc(OC(F)F)c1)NC12CCC(CC1)CC2 [Example 131, 1-(1-bicyclo[2.2.2]octanyl)-3-[[2-(difluoromethoxy)pyridin-4-yl]methyl]urea]
